Measurements reported in patent US5324728A, “Naphthoic acid derivative” (Fujirebio Inc., priority 1990, dated 1994).

Columns and labels:
[1] = molecular target: T1, 5-lipoxygenase (Rattus norvegicus, UniProt P12527); assay: 5-Lipoxygenase activity-inhibiting action (5-HETE biosynthesis, rat basophil leukemia-1 cell supernatant); assay type: biochemical
T1 construct: The resulting supernatant liquid was used as an enzymatic solution; endogenous in cells; host or cells: rat basophil leukemia-1 (RBL-1) cells, supernatant after sonication
T1 sequence (P12527 1-673): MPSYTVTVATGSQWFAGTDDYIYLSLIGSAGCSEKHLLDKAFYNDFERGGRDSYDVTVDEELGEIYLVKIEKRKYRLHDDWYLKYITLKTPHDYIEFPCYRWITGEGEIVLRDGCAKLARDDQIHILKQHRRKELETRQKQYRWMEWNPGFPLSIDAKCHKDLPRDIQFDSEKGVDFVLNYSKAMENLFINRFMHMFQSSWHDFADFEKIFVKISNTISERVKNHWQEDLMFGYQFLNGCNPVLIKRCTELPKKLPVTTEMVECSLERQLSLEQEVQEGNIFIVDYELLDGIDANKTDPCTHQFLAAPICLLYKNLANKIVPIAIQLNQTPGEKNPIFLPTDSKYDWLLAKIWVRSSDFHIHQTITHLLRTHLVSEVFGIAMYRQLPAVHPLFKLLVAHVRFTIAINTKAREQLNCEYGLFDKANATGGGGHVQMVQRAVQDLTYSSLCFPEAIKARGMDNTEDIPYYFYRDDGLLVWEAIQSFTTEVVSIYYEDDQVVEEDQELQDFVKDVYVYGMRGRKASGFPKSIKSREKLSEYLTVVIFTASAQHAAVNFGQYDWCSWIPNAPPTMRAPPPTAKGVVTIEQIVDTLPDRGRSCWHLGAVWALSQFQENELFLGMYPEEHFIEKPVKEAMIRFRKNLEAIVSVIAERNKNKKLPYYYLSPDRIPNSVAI
Protocol: 5-Lipoxygenase activity-inhibiting action
Rat basophil leukemia-1 cells were suspended in a 50 mM phosphate buffer solution (PBS) of pH 7.0 containing 1 mM of EDTA, 0.1% of gelatin and 14 μM of indometacin so that the resulting suspension contained 5×10^7 cels cells/ml ml. The suspension was subjected to an ultrasonic treatment and then to centrifugation (10,000G, 20 minutes). The resulting supernatant liquid was used as an enzymatic solution. 10 μl of a test compound solution was added to 460 μl of the enzymatic solution and a reaction was conducted at 37° C. for 5 minutes. Thereto were added 7.4 KBq of ^14 C-arachidonic acid and a 100 mM aqueous calcium chloride solution, and a reaction was conducted at 37° C. for 10 minutes. The reaction mixture was ice-cooled and then adjusted to pH 3 with 1N hydrochloric acid to terminate the reaction. Thereafter, extraction with 5 ml of chloroform was conducted. The extract was subjected to evaporation to dryness in the presence of nitrogen gas, and the residue was dissolved in a 2:1 mixture of chloroform and methanol. The solution was developed by thin-layer chromatography using Kieselgel 60 F254, according to the method of Jakschik, B. A. et al. [Biachen. Biophys. Res. Commun. 95, 103 (1980)]. The radioactivity of 5-hydroxyeicosatetraenoic acid (5-HETE) was measured by a liquid scintillation counter (LSC-900 manufactured by Aroka) to determine the ratio of 5-HETE biosynthesis inhibition of test compound-added group to control group, after which there was determined a concentration of test compound at which the activity of 5-lipoxygenase was inhibited by 50%, i.e. an IC50. The test compound was used in a diluted form by dissolving it in dimethyl sulfoxide. The results are shown in Tables 1, 2 and 3 which appear later.

[2] = system: mast cells; assay: Membrane-stabilizing action (mast cell degranulation); assay type: cell-based; details: Rattus norvegicus, 10^-4 M
Protocol: Membrane-stabilizing action
This test was conducted according to the method of Schwartz, J. et al. [Int. Arch. Allergy 30, 67 (1966)].
That is, 10 ml each of Hnak's balanced salt solution containing 10 units/ml of heparin was administered to rats intraperitoneally. After gentle massage of the abdomen for 2 minutes, peritoneal exudate cells (PEC) were obtained and washed 3 times with PBS containing 0.1% of bovine serum albumin (BSA). Mast cells in the suspension of PEC were stained with 0.2% of Neutral Red, and PEC were adjusted to a concentration of 4×10^5 mast cells/ml using PBS containing 0.1% of BSA. The cell suspension (50 μl) was incubated with 50 μl of a test compound solution at 37° C. for 5 minutes, then challenged with anti-egg albumin rat serum (50 μl, 1:40) and egg albumin (50 μl, 10 mg/ml) and further incubation was performed for 10 minutes. The reaction mixture was ice-cooled to terminate the reaction. Thereafter the number of mast cells undergoing degranulation was assessed under microscope observation to determine the menbrane-stabilizing action of the test compound.

[3] = system: tracheal chain; assay: Histamine antagonism (isolated guinea pig tracheal chain contraction); assay type: cell-based; details: Cavia porcellus, 5 min; 10^-5 M test compound; 3×10^-5 M histamine hydrochloride
Protocol: Guinea pigs were sacrificed and the tracheae were isolated. Each trachea was cut open at the center of the tracheal cartilage, and was cut in the vertical direction to separate into individual segments. Three of these segments were combined to form a tracheal chain. The tracheal chain was suspended in a Magnus tube filled with a Tyrode's solution (NaCl: 137 mX, KCl: 2.7 mM, CaCl2 : […], MgCl2 : 1.1 mM, NaHPO4 : 0.4 mM, NaHCO3 : 12.0 mM, glucose: 5.6 mM) kept at 37° C., while applying a load of 0.5 g. A mixed gas consisting of 95% of O2 and 5% of CO2 was constantly passed through the tube, and the contraction of the smooth muscle was recorded on a polygraph (U-228 manufactured by NIPPON DENKI KAGAKU) via an isotonic transducer (TD-112S manufactured by Nihon Koden). Each test compound was incubated for 5 minutes before the addition of 3×10^-5 M of histamine hydrochloride (a product of Wako Pure Chemical Industries, Ltd.).

[4] = molecular target: T2, TXA2 synthetase (Homo sapiens, UniProt P24557); assay: TX synthesis-inhibiting action (thromboxane synthetase kit, human platelet microsome); assay type: biochemical; details: 3 × 10^-6 M
T2 construct: human platelet microsome fraction; purchased Funakoshi: Eldan Tech; host or cells: human platelet microsome fraction (thromboxane synthetase kit)
T2 sequence (P24557 1-533): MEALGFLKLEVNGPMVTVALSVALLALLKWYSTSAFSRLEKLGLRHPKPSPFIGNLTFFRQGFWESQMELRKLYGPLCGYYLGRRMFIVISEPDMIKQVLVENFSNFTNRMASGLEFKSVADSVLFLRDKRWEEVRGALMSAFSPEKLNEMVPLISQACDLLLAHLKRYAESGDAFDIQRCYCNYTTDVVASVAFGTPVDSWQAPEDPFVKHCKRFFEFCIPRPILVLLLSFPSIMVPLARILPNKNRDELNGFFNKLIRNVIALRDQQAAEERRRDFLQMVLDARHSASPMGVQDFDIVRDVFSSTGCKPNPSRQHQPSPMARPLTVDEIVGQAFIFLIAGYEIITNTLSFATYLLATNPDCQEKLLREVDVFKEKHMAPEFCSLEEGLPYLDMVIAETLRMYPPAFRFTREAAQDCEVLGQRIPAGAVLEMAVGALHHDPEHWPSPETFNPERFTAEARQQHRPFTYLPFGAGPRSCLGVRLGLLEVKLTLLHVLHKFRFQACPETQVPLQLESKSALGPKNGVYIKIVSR
Protocol: TX synthesis-inhibiting action
TXA2 synthetase activity was measured by the use of a thromboxane synthetase kit (Funakoshi: Eldan Tech). That is, 0.97 mg of a human platelet microsome fraction was suspended in 1 m of a 50 mM tris-0.1M sodium chloride buffer solution of pH 7.5, and the resulting suspension was ice-cooled. […] of the suspension was placed in a sample tube and a test compound was added thereto. The resulting mixture was preincubated at 25° C. exactly for 3 minutes. Thereto was added 2μ of an ice-cooled acetone solution containing 0.05 mg/m of PGH2, and the resulting mixture was incubated at 25° C. exactly for 3 minutes. 10μ of a 0.25 mM FeCl2 solution was added to terminate the reaction. The resulting mixture was allowed to stand at room temperature for 15 minutes and then subjected to centrifugation at 1,000 G at 4° C. for 10 minutes. The TXB2 content contained in the supernatant was measured by RIA (thromboxanes B2 [3H] RIA Kit: NEN Research Products). The test compound was dissolved in DMSO or distilled water before use. The test was performed in triplicate or quadruplicate assays.

| inhibition at 3 µM [4] [%] | IC50 ([1]; Table 3) [nM] | IC50 ([1]; Table 2) [nM] | SMILES | IC50 ([1]; Table 1) [nM] | inhibition at 100 µM [2] [%] | inhibition at 10 µM [3] [%] |
| --- | --- | --- | --- | --- | --- | --- |
|  |  |  | CC(=O)Oc1cccc2cc(C(=O)NCCN3CCC(OC(c4ccccc4)c4ccccc4)CC3)c(O)cc12 [Example 5, N-[2-[4-(benzhydryloxy)piperidino]ethyl]-5-acetoxy-3-hydroxy-2-naphthamide] | 410 | 96.5 | 65.4 |
| 61.8 |  |  | O=C(NCCCCCSCc1cccs1)c1cc2cccc(O)c2cc1O [Example 44, N-[5-(2-thienylmethylthio)pentyl]-3,5-dihydroxy-2-naphthamide] |  |  |  |
| 73.2 | 300 |  | CC(=O)Oc1cccc2cc(C(=O)NCCN3CCN(CCSC(c4ccncc4)c4ccc(Cl)cc4)CC3)c(O)cc12 (stereo not drawn) [Example 15] |  |  |  |
| 75.6 |  | 110 | O=C(NCCN1CCC(OC(c2ccccc2)c2ccccc2)CC1)c1cc2cccc(OCc3ccncc3)c2cc1O [Example 43, N-[2-[4-(benzhydryloxy)piperidino]ethyl]-3-hydroxy-5-(4-pyridylmethoxyl)-2-naphthamide] |  | 80.7 | 48.2 |
|  |  |  | O=C(NCCN1CCN(CCSC(c2ccc(Cl)cc2)c2ccc(Cl)cc2)CC1)c1cc2cccc(O)c2cc1O [Example 21] | 250 | 100 |  |
|  |  |  | CC(=O)Oc1cccc2cc(C(=O)NCCN3CCN(CCSCc4cccs4)CC3)c(O)cc12 [Example 4, N-[2-[4-(thienylmethylthio)ethyl-1-piperazinyl]ethyl]-5-acetoxy-3-hydroxy-2-naphthamide] | 320 | 53.7 |  |
|  |  |  | O=C(NCCN1CCC(OC(c2ccccc2)c2ccccc2)CC1)c1cc2cccc(OCc3cccnc3)c2cc1O [Example 42, N-[2-[4-(benzhydryloxy)piperidino]ethyl]-3-hydroxy-5-(3-pyridylmethoxyl)-2-naphthamide] | 5100 | 60.1 |  |
|  |  | 270 | O=C(NCCN1CCC(OC(c2ccccc2)c2ccccc2)CC1)c1cc2cc(O)ccc2cc1O [Example 35, N-[2-[4-(benzhydryloxy)piperidino]ethyl]-3,7-dihydroxy-2-naphthamide] |  |  | 67.9 |
|  |  |  | O=C(NCCN1CCC(OC(c2ccccc2)c2ccccc2)CC1)c1cc2cccc(O)c2cc1O [Example 34, N-[2-[4-(benzhydryloxy)piperidino]ethyl]-3,5-dihydroxy-2-naphthamide] | 150 | 41 | 64.7 |
